From patent publication US9902709B2, “Polysubstituted pyridine compound, preparation method, use and pharmaceutical composition” (PEKING UNIVERSITY FOUNDER GROUP CO., LTD., priority 2014, dated 2018)
pIC50: −log10 of the molar value.

What was measured:
[1] = system: 786-O human renal clear cell carcinoma cell strain; assay: In vitro anti-proliferation of tumor cells (CCK-8), 786-O; assay type: cell-based; details: 786-0, 72 hours
Method: (§1) Experimental Example 2: Determination of the Compounds According to the Present Invention for IC50 of the In Vitro Anti-Proliferation of Tumor Cells
786-O human renal clear cell carcinoma cell strain (purchased from Shanghai Institute of Cell Biology, Chinese Academy of Sciences);
(§2) Preparation of a compound: the compound was diluted with DMSO to a final concentration of 10 mM.
(§3) a) Cells in logarithmic growth phase were collected, counted, and re-suspended in complete medium. The concentration of cells was adjusted to a suitable concentration (determined depending on the result of optimization experiment of cell density), and the cells were seeded to a 96-well plate at 100 μl cell suspension per well. The cells were incubated in an incubator at 37° C., 100% relative humidity, 5% CO2 for 24 hours.
(§4) b) A test compound was diluted with the culture medium to 500 μM, and then gradient dilution was performed for 8 times. Cells were added at 25 μl/well. The final concentrations of the compound was in a range from 100 μM and 0 μM, 4-fold diluted, including 10 concentrations.
(§5) c) The cells were incubated in an incubator at 37° C., 100% relative humidity, 5% CO2 for 72 hours.
(§6) d) The culture medium was withdraw and discarded, the complete medium containing 10% CCK-8 was added, and then the cells were incubated in an incubator at 37° C. for 2-4 hours.
(§7) IC50 curve was fitted and IC50 value was calculated by professional software GraphPad Prism 5.0.
(§8) In the experiment, the compounds according to the present invention were determined for their IC50 values of in vitro anti-proliferation of tumor cell strains. The final concentrations of the compounds was in a range from 100 μM and 0 μM, 4-fold diluted, including 10 concentrations.

Pharmacokinetics in mice = assay type: in vivo; details: female, plasma, CD-1 mouse
Method: Administration route: intravenous injection (IV); per os (PO).
Fasting condition: free access to water, no fasting.
The mice were weighed before administration, and the administration volume was calculated based on their body weights (IV group: 4 mL/kg; PO group: 10 mL/kg).
Administration route and dose: Intravenous (IV) group: 1 mg/kg; Oral (PO) group: 5 mg/kg.
Animal grouping: 3 mice/group, an IV group and a PO group for each test compound.
After administration, 30 μL whole blood was collected from rim of the eyes of mice in the IV group at each pre-determined time point (5 min, 15 min, 30 min, 1 h, 2 h, 4 h, 8 h, 24 h), and 30 μL whole blood was collected from rim of the eyes of mice in the PO group at each pre-determined time point (15 min, 30 min, 1 h, 2 h, 4 h, 8 h, 24 h). The whole blood was centrifuged (6,000 rpm, 5 min) to get blood plasma. All the blood plasma samples were stored in a refrigerator of −80° C. for further analysis.
Conditions of LC/MS/MS was as follows:
Pharmacokinetic parameters were estimated according to non-compartment model (calculated by WinNonlin software): […]
IV paramater: t1/2 (hr); C0 (ng/mL); AUClast (hr*ng/mL); AUCInf (hr*ng/mL); AUC Extr (%); Vz (L/kg); Vss (L/kg); CL (mL/min/kg); MRT (hr).
PO parameter: t1/2 (hr); tmax (hr); Cmax (ng/mL); AUClast (hr*ng/mL); AUCInf (hr*ng/mL); AUC Extr (%); MRT (hr); AUC/D (hr*mg/mL); F (%).

[2] = system: NCI-H460 Human large cell lung cancer cell strain; assay: In vitro anti-proliferation of tumor cells (CCK-8), NCI-H460; assay type: cell-based; details: NCI-H460, 72 hours
Method: as §1
NCI-H460 Human large cell lung cancer cell strain (purchased from Shanghai Institute of Cell Biology, Chinese Academy of Sciences);
as §2, §3, §4, §5, §6, §7, §8

[3] = system: A498 human renal carcinoma cell strain; assay: In vitro anti-proliferation of tumor cells (CCK-8), A498; assay type: cell-based; details: A498, 72 hours
Method: as §1
A498 human renal carcinoma cell strain (purchased from Shanghai Institute of Cell Biology, Chinese Academy of Sciences);
as §2, §3, §4, §5, §6, §7, §8

[4] = system: HCT116 human colon cancer cell strain; assay: In vitro anti-proliferation of tumor cells (CCK-8), HCT-116; assay type: cell-based; details: HCT-116, 72 hours
Method: as §1
HCT116 human colon cancer cell strain (purchased from Shanghai Institute of Cell Biology, Chinese Academy of Sciences);
as §2, §3, §4, §5, §6, §7, §8

[5] = system: HepG2 human liver cancer cell strain; assay: In vitro anti-proliferation of tumor cells (CCK-8), HepG2; assay type: cell-based; details: HepG2, 72 hours
Method: as §1
HepG2 human liver cancer cell strain (purchased from Shanghai Institute of Cell Biology, Chinese Academy of Sciences);
as §2, §3, §4, §5, §6, §7, §8

[6] = system: SK-OV-3 human ovarian cancer cell strain; assay: In vitro anti-proliferation of tumor cells (CCK-8), SK-OV-3; assay type: cell-based; details: SK-OV-3, 72 hours
Method: as §1
SK-OV-3 human ovarian cancer cell strain (purchased from Shanghai Institute of Cell Biology, Chinese Academy of Sciences);
as §2, §3, §4, §5, §6, §7, §8

VEGFR2 = VEGFR2 (Homo sapiens (Human), UniProt P35968); assay: Inhibitory activity of VEGFR2 kinase (HTRF KinEASE-TK kit); assay type: biochemical
Method: HTRF®KinEASE™-TK kit (Cat.62TKOPEC, Cisbio);
VEGFR2 (Cat: k2643, Sigma);
2.1 Preparation of VEGFR2 Kinase Reagent
1× kinase buffer: 1 mL 1× kinase buffer contained 200 μL 5× kinase buffer (Invitrogen), 5 μL, 1M MgCl2, 1 μL 1M DTT, 1 μL 1M MnCl2, and 793 μL ddH2O;
5×TK substrate-biotin and ATP working fluid: as the concentrations of TK substrate-biotin and ATP, please refer to Table 1. TK substrate-biotin and ATP were diluted with 1× kinase buffer to 5 folds of the reaction concentrations;
5× kinase working fluid: as the concentration of VEGFR2 kinase, please refer to Table 1. 5× kinase working fluid was prepared with 1× Kinase buffer;
4× Sa-XL665 working fluid: as the concentration of Sa-XL665 (Cisbio) in the reaction, please refer to Table 1. The 4× Sa-XL665 working fluid was prepared with assay buffer (Cisbio);
4×TK Ab-cryptate working fluid: TK Ab-Cryptate (Cisbio) was 100-fold diluted with assay buffer (Cisbio), as working fluid;
Experimental Procedure of HTRF KinEASE TK Kit
After all the reagents were prepared as described above, the reagents except for enzymes were equilibrated to room temperature, then adding samples were performed.
TK substrate-biotin, ATP, VEGFR2 kinase and a compound at a certain concentration were reacted in 1× kinase buffer at room temperature for 20 minutes. […] To all the reaction wells, 5 μl 4× Sa-XL665 working fluid and 5 μl 4×TK Ab-cryptate working fluid were added. After reacting at room temperature for 1 hours, fluorescence signal (excited at 320 nm, emitted at 665 nm, 615 nm) was detected by ENVISION detector (Perkinelmer). Based on the full-active well and the background signal well, the inhibition rate for each well was calculated, and the average value was used for duplicate wells. The half maximal inhibitory concentration (IC50) for each test compound was fitted by professional software Graphpad PRISM 5.0.
2.3 Data Analysis Emission light ratio (ER)=665 nm emission signal/615 nm emission signal Inhibition rate=(ERpositive−ERsample)/(ERpositive−ERnegative)*100%
HTRF KinEASE TK kit was used to determine the IC50 value of a compound for kinase VEGFR2. The final concentration of the compound started from 100 μM, and 4-fold gradient dilution was carried out to provide 10 concentrations. Duplicate wells were used for each concentration. The final concentration of DMSO was controlled to 1% in the reaction system.

[7] = system: MiaPaCa-2 human pancreatic cancer cell strain; assay: In vitro anti-proliferation of tumor cells (CCK-8), MiaPaCa-2; assay type: cell-based; details: MIA PaCa-2, MiaPaCa-2, 72 hours
Method: as §1
MiaPaCa-2 human pancreatic cancer cell strain (purchased from American ATCC);
as §2, §3, §4, §5, §6, §7, §8

[8] = system: HL-60 human acute myeloid leukemia cell strain; assay: In vitro anti-proliferation of tumor cells (CCK-8), HL-60; assay type: cell-based; details: HL-60, 72 hours
Method: as §1
HL-60 human acute myeloid leukemia cell strain (purchased from Shanghai Institute of Cell Biology, Chinese Academy of Sciences);
as §2, §3, §4, §5, §6, §7, §8

[9] = system: MDA-MB-231 human mammary cancer cell strain; assay: In vitro anti-proliferation of tumor cells (CCK-8), MDA-MB-231; assay type: cell-based
Method: as §1
MDA-MB-231 human mammary cancer cell strain (purchased from Shanghai Institute of Cell Biology, Chinese Academy of Sciences);
as §2, §3, §4, §5, §6, §7, §8

VEGFR2, sequence (P35968 20-1356): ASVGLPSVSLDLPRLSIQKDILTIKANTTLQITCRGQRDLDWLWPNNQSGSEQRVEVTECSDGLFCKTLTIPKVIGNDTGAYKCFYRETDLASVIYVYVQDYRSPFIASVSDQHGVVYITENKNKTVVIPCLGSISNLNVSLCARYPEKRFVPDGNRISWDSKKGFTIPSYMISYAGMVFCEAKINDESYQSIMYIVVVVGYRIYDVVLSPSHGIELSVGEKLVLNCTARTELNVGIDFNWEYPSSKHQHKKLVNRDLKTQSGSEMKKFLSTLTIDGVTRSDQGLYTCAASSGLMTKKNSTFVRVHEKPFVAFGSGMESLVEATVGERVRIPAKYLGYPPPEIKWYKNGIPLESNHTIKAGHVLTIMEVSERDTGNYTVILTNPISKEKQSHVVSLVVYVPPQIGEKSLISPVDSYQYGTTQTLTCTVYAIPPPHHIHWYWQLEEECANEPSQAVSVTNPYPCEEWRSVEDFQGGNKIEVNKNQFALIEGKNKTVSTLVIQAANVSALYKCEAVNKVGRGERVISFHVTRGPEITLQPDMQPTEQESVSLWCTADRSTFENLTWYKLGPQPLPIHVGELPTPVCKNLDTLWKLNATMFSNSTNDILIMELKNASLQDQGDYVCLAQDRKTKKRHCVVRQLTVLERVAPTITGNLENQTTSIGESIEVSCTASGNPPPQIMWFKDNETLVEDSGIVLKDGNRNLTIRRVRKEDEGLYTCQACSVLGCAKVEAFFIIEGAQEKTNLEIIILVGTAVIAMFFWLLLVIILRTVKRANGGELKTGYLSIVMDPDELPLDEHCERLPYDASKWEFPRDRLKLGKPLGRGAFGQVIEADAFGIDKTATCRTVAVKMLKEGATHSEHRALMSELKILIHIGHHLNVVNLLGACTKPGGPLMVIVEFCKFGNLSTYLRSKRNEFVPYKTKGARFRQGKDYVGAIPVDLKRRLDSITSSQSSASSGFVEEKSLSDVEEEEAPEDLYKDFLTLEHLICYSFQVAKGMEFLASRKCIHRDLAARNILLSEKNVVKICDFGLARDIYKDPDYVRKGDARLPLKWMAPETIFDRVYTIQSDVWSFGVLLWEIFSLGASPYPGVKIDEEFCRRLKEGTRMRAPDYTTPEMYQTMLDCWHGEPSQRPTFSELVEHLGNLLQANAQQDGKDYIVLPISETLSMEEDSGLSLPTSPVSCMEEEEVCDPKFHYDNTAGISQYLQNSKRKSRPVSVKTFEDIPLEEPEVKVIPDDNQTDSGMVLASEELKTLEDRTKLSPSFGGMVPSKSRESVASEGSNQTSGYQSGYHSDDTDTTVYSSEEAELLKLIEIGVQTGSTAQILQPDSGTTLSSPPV

pIC50 [1]: 5.61
bioavailability (Pharmacokinetics in mice; PO 5 mg/kg vs IV 1 mg/kg, read-out: F (oral bioavailability)): 90.3%
AUC(0-t) (Pharmacokinetics in mice; PO 5 mg/kg, average of three mice, read-out: AUClast (area under the curve)): 39600 ng·h/mL
Cmax (Pharmacokinetics in mice; PO 5 mg/kg, average of three mice, read-out: Cmax (peak concentration)): 1910 ng/mL
pIC50 [2]: 6.03
pIC50 [3]: 5.31
pIC50 [4]: 5.56
pIC50 [5]: 6.14
pIC50 [6]: 5.15
pIC50 (VEGFR2; ATP 5 μM, 20 minutes, room temperature): 7.54
inhibitory activity as fold of that of Comparative compound 2 (VEGFR2; VEGFR2 kinase): 6.6 fold
inhibitory activity as fold of that of Sorafenib (VEGFR2; VEGFR2 kinase): 3.13 fold
IC50 value as fold of that of Comparative compound 2 (VEGFR2; VEGFR2 kinase, ratio of IC50): 0.15 fold
IC50 value as fold of that of Sorafenib (free base) (VEGFR2; VEGFR2 kinase, ratio of IC50): 0.32 fold
pIC50 [7]: 5.69
pIC50 [8]: 4.77
pIC50 ([9]; Homo sapiens, MDA-MB-231, 72 hours, CCK-8): 5.55
IC50 as fold of that of Sorafenib ([9]; MDA-MB-231 cell line): 0.28 fold
SMILES: Cn1cc(-c2nccc(Oc3ccc(NC(=O)Nc4ccc(Cl)c(C(F)(F)F)c4)cc3)c2F)cn1 [Example 1, 1-(4-chloro-3-(trifluoromethyl)phenyl)-3-(4-(3-fluoro-2-(1-methyl-4-pyrazolyl)-pyridin-4-yl-oxy)phenyl)urea]
